The source of these data is patent US20090074766A1, “Methods of inhibiting HIV-2 infection” (priority 2007, published 2009).

Experiment [1] concerns reporter viruses pseudotyped with HIV-1JR-FL envelope. In kind it is cell-based. Further details: CI90: unit not given beside the values. The conditions noted are these: for IC90 / IC50: 1st inhibitor alone, HIV-1 envelope JRFL; for CI90 / CI50: envelope JRFL. An excerpt:
HIV-1 pseudoparticles (HIV-1pp) are generated in 293T cells by transient coexpression of an HIV-1-based NL4/3luc+env− plasmid and a construct encoding HIV-1JRFL Env. The NL4/3luc+env− plasmid was obtained from the NIH AIDS Research and Reference Reagent Program (Cat. No. 3418), and the HIV-1JRFL Env was inserted into the pcDNA3.1 vector (Invitrogen). Briefly, 293T cells are calcium phosphate transfected with a 1:1 ratio of NL4/3luc+env− reporter vector and Env expression vector in Hepes buffer (Profection Mammalian Transfection Kit, Promega). After 16 h the transfection medium is aspirated and fresh cell culture medium (DMEM with 10% FBS, glutamine and antibiotics) is added and the incubation is continued at 37° C. for an additional 24-32 h. Cell culture supernatants are collected 48 h post-transfection and centrifuged at 1,400 rpm for 10 min to pellet cell debris. The viral supernatant is brought to a final concentration of 5% sucrose and stored aliquoted at −80° C.
U87-CD4-CCR5 cells were obtained from the NIH AIDS Research and Reference Program (Cat. No. 4035). These cells are maintained in culture medium (DMEM with 10% FBS, antibiotics and glutamine) containing 0.3 mg/ml G418 and 0.5 mg/ml puromycin. Cells are grown in T175-cm^2 flasks at 37° C. and diluted 1:5 every 3-4 days. For assay plate preparation, cells are trypsinized and seeded into wells of 96-well tissue-culture treated flat bottom opaque polystyrene plates (Perkin Elmer, Boston, Mass.) at a density of 3×10^3 cells/well. Plates are incubated for no more than 4 h at 37° C. in a humidified 5% CO2 incubator prior to their use in the HIV-1 pp susceptibility assay.
Fifty μl of diluted compound at 4× the desired final concentration are added per well. For compounds solubilized in DMSO, the 4× stock will contain 2% DMSO (such that the final DMSO concentration in the assay is always 0.5% for small molecules). Control wells receiving no compound are included on each plate. In addition, an AZT inhibition control is included in each assay. Compounds are tested individually and at a fixed mass or molar ratio over a broad range of concentrations.
A vial of frozen, aliquoted HIV-1pp is thawed in a 37° C. waterbath and then placed on wet ice. Virus is diluted in cold cell culture medium as necessary to achieve the desired final virus concentration in the HIV-1pp assay (about 10,000 relative light units (rlu) per well). 50 μl of diluted virus are added per well, bringing the final well volume to 200 μl. A no-virus control (minimum or background luminescence) and a no-compound control (maximum luminescence) are included on each plate. The plates are incubated for 72 h at 37° C. in a humidified 5% CO2 incubator followed by processing for luciferase signal (see below).
Assay medium is aspirated and 200 μl of PBS are added to each well. […] Assay plates are then frozen for at least 2 h at −80° C. followed by thawing at room temperature and vigorous mixing with an electronic pipettor. 25 μl from each well are transferred to an opaque 96-well plate (Costar #3922). Four replicates are pooled into the same well on the opaque plate. 100 μl of freshly thawed and reconstituted luciferase substrate (Luciferase Assay System, Promega—Cat. No. E1501) are added to each well of the plate with the electronic pipettor, and luminescence is detected immediately on a Dynex MLX plate reader set to medium gain.
The percent inhibition is derived as follows: [1−(luciferase activity in the presence of drug/luciferase activity in the absence of drug)]×100. IC50 values are determined by fitting the inhibition data with a non-linear, four-parameter, variable slope equation (GraphPad Prism, ver. 4.02; GraphPad Software, San Diego, Calif.). Upper and lower inhibition values are constrained to 100% and 0%, respectively for curve fitting. […]

The subject of experiment [2] is reporter viruses pseudotyped with HIV-1SF162 envelope. Format: cell-based. Also on record: CI90: unit not given beside the values. The conditions noted are these: for IC50 / IC90: 1st inhibitor alone, HIV-1 envelope SF162; for CI90 / CI50: envelope SF162. An excerpt: A self-inactivating (SIN) vector was derived from the pNL4-3ΔEnv-luciferase vector (Dragic et al. 1996) by deleting 507 basepairs in the U3 region of the 3′ long terminal repeat (LTR) so as to remove the TATA box and transcription factor binding sites. The human cytomegalovirus promoter was inserted upstream of the luciferase (luc) gene to enable expression of luciferase following integration.
Reporter viruses pseudotyped with HIV-1JR-FL or HIV-1SF162 envelopes were generated by cotransfection of 293T cells with the SIN vector and the appropriate pcDNA env-expressing vector as previously described (Dragic et al. 1996). […] Cultures were incubated for 72 h at 37° C. in DMEM containing 10% fetal bovine serum, 1 mg/mL puromycin, 0.3 mg/mL geneticin, antibiotics, and 0.5% DMSO. Luciferase activity (relative light units or RLU) was measured using BrightGlo reagent (Promega, Madison, Wis.) according to the manufacturer's instructions. Percent inhibition was calculated as: (1−RLU in the presence of inhibitor/RLU in the absence of inhibitor)×100.
Experimental design and data analysis were based on the combination index (CI) method (Chou et al. 1991; Chou et al. 1984). Compounds were tested individually and in combination at a fixed molar ratio over a range of serial dilutions. […] The mutually exclusive CI formula was used for combinations of CCR5 inhibitors, while the mutually non-exclusive formula was utilized for combinations of inhibitors to distinct targets (Chou et al. 1991). Each test was conducted 4-12 times. Synergy, additivity and antagonism are indicated by CI<1, CI=1 and CI>1, respectively.

The mark [3] stands for this setting: labelled 1st inhibitor with 2nd inhibitor SCH-D.
The mark [4] stands for this setting: labelled 1st inhibitor with 2nd inhibitor PRO 140, equimolar (1:10 PRO 140 to zidovudine or nevirapine).

Read-outs that look alike come from different tables or passages of the source.

Broadly, the IC90 is the point of the concentration-response curve where the effect stands at 90%. A word on the IC50: it is the concentration that gives 50% inhibition.

Turning to `COC[C@@H](c1ccc(C(F)(F)F)cc1)N1CCN(C2(C)CCN(C(=O)c3c(C)ncnc3C)CC2)C[C@@H]1C` [SCH-D, 1-[(4,6-dimethyl-5-pyrimidinyl)carbonyl]-4-[4-[2-methoxy-1(R)-4-(trifluoromethyl)phenyl]ethyl-3(S)-methyl-1-piperazinyl]-4-methylpiperidine], the results for the IC90 in experiment [1] (read-out: IC90) and in experiment [2] (read-out: IC90) were 44 nM and 14 nM, respectively. Moreover, the IC50 in experiment [2] (read-out: IC50) was 0.34 nM.
For the molecule `Cc1nnc(C(C)C)n1C1CC2CCC(C1)N2CC[C@H](NC(=O)C1CCC(F)(F)CC1)c1ccccc1` (stereo partly drawn) [UK-427,857], the IC50 was determined as 7.4 nM in experiment [1] and 0.87 nM in experiment [2]. For the same molecule, the results for the IC90 in experiment [1] and in experiment [2] were 46 nM and 13 nM, respectively. Also, the values for the CI90 in experiment [1] (setting [3]) and in experiment [2] (setting [3]) were 1.2 ± 0.15 and 0.86 ± 0.28, respectively.
`COc1ccnc2[nH]cc(C(=O)C(=O)N3CCN(C(=O)c4ccccc4)C[C@H]3C)c12` [BMS-378806, (R)-N-(benzoyl)-3-methyl-N′-[(4-methoxy-7-azaindol-3-yl)-oxoacetyl]-piperazine]: in experiment [1] (setting [4]), the CI50 is listed as 1.2 ± 0.38 and the CI90 worked out at 0.74 ± 0.23. In addition, in experiment [2] (setting [4]), the CI50 was found to be 1.1 ± 0.28 and the CI90 is 0.82 ± 0.21.

B1: PRO 140: humanized IgG4,κ anti-CCR5 monoclonal antibody, humanized version of murine mAb PA14 (antibody, chains of the INN, looked up, V domains shown)
VH: EVQLVESGGGLVKPGGSLRLSCAASGYTFSNYWIGWVRQAPGKGLEWIGDIYPGGNYIRNNEKFKDKTTLSADTSKNTAYLQMNSLKTEDTAVYYCGSSFGSNYVFAWFTYWGQGTLVTVSS
VL: DIVMTQSPLSLPVTPGEPASISCRSSQRLLSSYGHTYLHWYLQKPGQSPQLLIYEVSNRFSGVPDRFSGSGSGTDFTLKISRVEAEDVGVYYCSQSTHVPLTFGQGTKVEIK
Consider B1, for which the IC50 in experiment [1] (read-out: IC50) is 2.2 nM; in experiment [2] (read-out: IC50) it was 1.3 nM. Besides, the IC90 is 28 nM in experiment [1] (read-out: IC90) and 20 nM in experiment [2] (read-out: IC90). The CI50 in experiment [1] (setting [4]) is reported as 1.2 ± 0.32; in experiment [2] (setting [4]), 1.0 ± 0.27. The CI90 in experiment [1] (setting [4]) was determined as 0.90 ± 0.15; in experiment [2] (setting [4]) it was 0.86 ± 0.33.
